# Assays:
# Format in all cases: in vivo
# [1] = tested on: rice crop; experiment: Dead heart count in rice crop; conditions: GR, g a.i./ha: Flupyrimin 150, Cartap 1000, Cartap + EMA 581, Fipronil 60; for Dead hearts (count) 7 DAA: 7 days after application; for Dead hearts (count) 14 DAA: 14 days after application; for Dead hearts (count) 21 DAA: 21 days after application; for Dead hearts (count) 28 DAA: 28 days after application; for Dead hearts (count) Pre-count: pre-count before application
# Source text: (§1) Injury in plants is often first noticed when the youngest partially unfurled leaf of the plant begins to whiter and die, resulting in a condition called dead heart. Dead hearts can be caused by any stem borer. Typical bore holes will be seen on the stem. Usually, a single larva is seen inside the stem. It remains inside the stem and feeds on the internal contents. The shoot of the affected plant can be pulled off easily, a symptom known as dead heart. At maturity, the grains become chaffy, which is known as white ear and eventually the whole plant finally dies.
# (§2) The phytotonic effect of flupyrimin in rice crop in terms of the dead heart count, number of ears, productive tillers/hill and the hill stability were determined.
# The observations were made at 7DAA, 14 DAA, 21 DAA and 28 DAA (days after application).
# [2] = tested on: rice crop; experiment: White ear count in rice crop; conditions: GR, g a.i./ha: Flupyrimin 150, Cartap 1000, Cartap + EMA 581, Fipronil 60
# Source text: as §1, §2
# [3] = tested on: rice crop; experiment: Number of tillers and productive tillers per hill in rice crop; conditions: for No. of tillers/hill at 45 DAA / No. of productive tillers/hill at heading: rice, GR, g a.i./ha: Flupyrimin 150, Cartap 1000, Cartap + EMA 581, Fipronil 60
# [4] = tested on: rice; experiment: Hill stability test (tiller sturdiness, girth) in rice; conditions: flupyrimin composition (2% GR)
# Procedure: The hill stability test was performed to determine the tiller strength of the hill. Accordingly, rice was subjected to flupyrimin treatment at 23 days after transplanting (DAT) and observations were taken at 20 DAA (days after application).
# Hill stability is an important plant growth feature, as it protects the crop from lodging. It becomes especially important in tall varieties and in areas prone to high winds, cyclones, heavy rains etc. Due to hill stability, the plant is able to sustain the natural forces. Hill stability is also important in case of high pest and disease pressure, which makes the plant weak and loses the tiller strength.
# [5] = tested on: wheat; experiment: % germination of wheat seed after seed treatment; conditions: seed treatment 500 g/L FS
# Procedure: The present inventors have observed the phytotonic effect of flupyrimin in wheat by determining the % germination, plant height, root length (cm) and plant vigor The seeds were treated with 500 g/L flupyrimin flowable concentrate (FS) formulation. […]
# [6] = tested on: wheat; experiment: Plant height, root length, tillers and plant vigor in wheat after seed treatment
# Procedure: (§3) The present inventors have observed the phytotonic effect of flupyrimin in wheat by determining the % germination, plant height, root length (cm) and plant vigor The seeds were treated with 500 g/L flupyrimin flowable concentrate (FS) formulation. The observations were made at 30 DAS and 45 DAS (days after seeding).
# [7] = tested on: wheat; experiment: Yield and test weight in wheat after seed treatment; design: Test weight (1000 grain weight): unit not given here
# [8] = tested on: mustard; experiment: Plant height, root length and plant vigor in mustard after seed treatment; conditions: 500 g/L FS
# Procedure: as §3, with “mustard seeds” for “wheat”, “vigor.” for “vigor”
# [9] = tested on: Nilaparvata lugens BPH (Brown plant hopper); experiment: Brown plant hopper infestation after application; conditions: up-to 45 Days After application of composition comprising flupyrimin and/or a salt thereof
# [10] = 1.2 g AI/kg of seed (2.4 ml/kg)
# [11] = 2.0 g AI/kg of seed (4.0 ml/kg)
compound,measurement,setting,value
"O=C(/N=c1\ccccn1Cc1ccc(Cl)nc1)C(F)(F)F [Flupyrimin, N-[(E)-1-(6-chloro-3-pyridinylmethyl)pyridin-2 (1H)-ylidene]-2,2,2-trifluoroacetamide]",Dead hearts (count) 7 DAA,[1],0.00 count
same,Dead hearts (count) 14 DAA,[1],0.00 count
same,Dead hearts (count) 21 DAA,[1],0.04 count
same,Dead hearts (count) 28 DAA,[1],0.01 count
same,Dead hearts (count) Pre-count,[1],0.00 count
same,White ear/hill at heading,[2],0.17
same,Greater number of tillers against the market standards (average),"[3]; rice crop, granular formulation",2-3
same,No. of tillers/hill at 45 DAA,[3],22.47
same,No. of productive tillers/hill at heading,[3],19.63
same,Girth of tillers compared to untreated rice,[4],almost twice the girth
same,% Germination of Wheat Seed 6 DAS,[5]; [10],92.0%
same,% Germination of Wheat Seed 9 DAS,[5]; [10],93.0%
same,% Germination of Wheat Seed 12 DAS,[5]; [10],95.5%
same,% Germination of Wheat Seed 6 DAS,[5]; [11],92.0%
same,% Germination of Wheat Seed 9 DAS,[5]; [11],93.8%
same,% Germination of Wheat Seed 12 DAS,[5]; [11],96.0%
same,No. of tillers/plant 30 DAS,[6]; [10],5.8
same,Plant Height (cm) 30 DAS,[6]; [10],42.4 cm
same,Plant Vigor (0-5 Index scale) 30 DAS,[6]; [10],5.0 0-5 Index scale
same,Root length (cm) 30 DAS,[6]; [10],11.5 cm
same,No. of tillers/plant 45 DAS,[6]; [10],6.4
same,Plant Height (cm) 45 DAS,[6]; [10],57.9 cm
same,Plant Vigor (0-5 Index scale) 45 DAS,[6]; [10],5.0 0-5 Index scale
same,Root length (cm) 45 DAS,[6]; [10],12.3 cm
same,No. of tillers/plant 30 DAS,[6]; [11],5.8
same,Plant Height (cm) 30 DAS,[6]; [11],43.3 cm
same,Plant Vigor (0-5 Index scale) 30 DAS,[6]; [11],5.0 0-5 Index scale
same,Root length (cm) 30 DAS,[6]; [11],11.8 cm
same,No. of tillers/plant 45 DAS,[6]; [11],6.5
same,Plant Height (cm) 45 DAS,[6]; [11],58.1 cm
same,Plant Vigor (0-5 Index scale) 45 DAS,[6]; [11],5.0 0-5 Index scale
same,Root length (cm) 45 DAS,[6]; [11],12.7 cm
same,Test weight (1000 grain weight),[7]; [10],55.3
same,Yield (Qt/ha),[7]; [10],37.4 Qt/ha
same,Test weight (1000 grain weight),[7]; [11],56.5
same,Yield (Qt/ha),[7]; [11],37.8 Qt/ha
same,Plant Height (cm) 30 DAS,[8]; 4 g AI/kg of seed (8 ml/kg),21.7 cm
same,Plant Vigor (0-5 Index scale) 30 DAS,[8]; 4 g AI/kg of seed (8 ml/kg),5.0 0-5 Index scale
same,Root length (cm) 30 DAS,[8]; 4 g AI/kg of seed (8 ml/kg),18.2 cm
same,Plant Height (cm) 45 DAS,[8]; 4 g AI/kg of seed (8 ml/kg),93.2 cm
same,Plant Vigor (0-5 Index scale) 45 DAS,[8]; 4 g AI/kg of seed (8 ml/kg),5.0 0-5 Index scale
same,Root length (cm) 45 DAS,[8]; 4 g AI/kg of seed (8 ml/kg),20.8 cm
same,Plant Height (cm) 30 DAS,[8]; 6 g AI/kg of seed (12 ml/kg),22.8 cm
same,Plant Vigor (0-5 Index scale) 30 DAS,[8]; 6 g AI/kg of seed (12 ml/kg),5.0 0-5 Index scale
same,Root length (cm) 30 DAS,[8]; 6 g AI/kg of seed (12 ml/kg),18.3 cm
same,Plant Height (cm) 45 DAS,[8]; 6 g AI/kg of seed (12 ml/kg),95.6 cm
same,Plant Vigor (0-5 Index scale) 45 DAS,[8]; 6 g AI/kg of seed (12 ml/kg),5.0 0-5 Index scale
same,Root length (cm) 45 DAS,[8]; 6 g AI/kg of seed (12 ml/kg),21.1 cm
same,Nilaparvata lugens BPH infestation,[9],no Nilaparvata lugens BPH (Brown plant hopper) infestation is found
CN(C)C(CSC(N)=O)CSC(N)=O [Cartap],Dead hearts (count) 7 DAA,[1],0.21 count
same,Dead hearts (count) 14 DAA,[1],1.54 count
same,Dead hearts (count) 21 DAA,[1],3.08 count
same,Dead hearts (count) 28 DAA,[1],2.17 count
same,Dead hearts (count) Pre-count,[1],0.00 count
same,White ear/hill at heading,[2],2.33
same,No. of tillers/hill at 45 DAA,[3],18.07
same,No. of productive tillers/hill at heading,[3],13.77
N#Cc1nn(-c2c(Cl)cc(C(F)(F)F)cc2Cl)c(N)c1[S+]([O-])C(F)(F)F (centres unmarked) [Fipronil],Dead hearts (count) 7 DAA,[1],0.00 count
same,Dead hearts (count) 14 DAA,[1],0.40 count
same,Dead hearts (count) 21 DAA,[1],2.19 count
same,Dead hearts (count) 28 DAA,[1],1.24 count
same,Dead hearts (count) Pre-count,[1],0.00 count
same,White ear/hill at heading,[2],1.27
same,No. of tillers/hill at 45 DAA,[3],19
same,No. of productive tillers/hill at heading,[3],15.63
